According to patent US8008071B2 (University of South Florida, priority 1999, dated 2011):
“Also recorded” adds a separate entry of the source.

Experiments:
PKCβII mRNA [1] = test: RT-PCR of PKCβII mRNA in synchronized A10 cells; format: cell-based, rat; conditions: for effect of glucose analogs on PKCβII mRNA: 25 mM analog; for PERCENT OF PKCβII mRNA POST-GLUCOSE TREATMENT: inhibitor added 30 minutes prior to 25 mM glucose, 5.5 mM glucose control = 100%; for PERCENT OF PKCβII mRNA POST-GLUCOSE TREATMENT / effect of inhibitor on glucose-induced destabilization of PKCβII mRNA: synchronized A10 cells; for effect of inhibitor on glucose-induced destabilization of PKCβII mRNA: 30 minutes pre-incubation, then 25 mM glucose
Procedure: (§1) Reverse Transcriptase-Polymerase Chain Reaction. […] The upstream sense primer corresponded to the C4 kinase domain common to both PKCβI and PKCβII (5′ […] 3′) [SEQ ID NO:4] and the downstream antisense primer was specific for PKCβI (5′ […] 3′) [SEQ ID NO:5] (Chalfant et al., 1995, pp.13326-13332). These primers detect inclusion of the PKCβII exon in the mature mRNA as well as PKCβI mRNA. Sense and antisense primers for β-actin (#5402-3) were obtained from Clonetech. PCR was performed using ampliTaq Gold DNA polymerase from PERKIN ELMER (#N808-0240) on 10% of the reverse transcriptase reaction product. Following 35 cycles of amplification in a BIOMETRA Trioblock thermocycler (PKCβI and -βII: 95° C., 30 sec; 64° C., 2 min for 35 cycles; and for β-actin: 94° C., 1 min; 58° C., 1 min; and 72° C., 3 min for 35 cycles), 25% of the PCR reaction was resolved on a 1.2% agarose gel. Bands were observed under UV light and photographed.
Primers were designed for the upstream common kinase region (C4) (-sense primer) and the PKCβI exon (-antisense primer) for simultaneous amplification of both PKCβI and -βII messages by RT-PCR.

glucose-sensing element = test: Specificity of the glucose-sensing element for hexoses
PKCβ promoter = test: PKCβ promoter-CAT deletion constructs transiently transfected into A10 cells; format: cell-based, rat; conditions: 100 nM TPA
Procedure: Calcium-phosphate transfections. For promoter studies, A10 cells were grown and synchronized in 6-well plates. Three hours prior to transfections, fresh medium (DMEM containing 10% fetal bovine serum) was substituted on A10 cells. pβG or pβG-PKCβII expression vectors were transfected with the calcium-phosphate-DNA precipitate. Following overnight incubation, calcium phosphate-DNA precipitate was washed off with 1× Dulbecco's phosphate buffered saline (DPBS) and replaced with fresh medium. For stably-transfected cell selection, 0.7 mg/ml G-418 was added to the media. It was changed every 4 days and 10-14 days later, the colonies were pooled and maintained in DMEM (10% FBS) with 0.2 mg/ml G-418.
Since PKCβ is a low copy gene, nuclear run-on assays were not a practical approach to examine transcriptional regulation. […] PKCβ promoter constructs with successive deletions of the 5′ region cloned in front of a promoterless chloramphenicol acetyltransferase (CAT) as the reporter gene were transiently transfected into A10 cells (FIG. 19). pSV-β-Galactosidase was co-transfected with the CAT constructs to normalize the efficiency of transfection. Simultaneous positive and negative controls were carried out as described previously.
Transcriptional repression of PKCβ promoter by transcription factors in response to high glucose was anticipated. […]

PKCβ(I+II) mRNA [2] = test: In vitro RNA stability assay with post-nuclear extracts of A10 cells; set-up: species or system rat; conditions: 50 mM EDTA added to the reaction mix
Procedure: RNA stability assay. To prepare post-nuclear extracts (see, for example, Wager, R. E. and R. K. Assoian. 1990. A phorbol ester-regulated ribonuclease system controlling transforming growth factor BI gene expression in hematopoietic cells. Mol. Cell. Biol. 10:5983-5990), synchronized A1O cells, re-initiated to proliferate with DMEM+10% FBS were treated with either 5.5 mM or 25 mM glucose for 2 h to 24 h, then washed and collected in ice-cold 1× DPBS. The cellular pellet was re-suspended in extract buffer containing 0.01M Tris-HCl, 0.15M NaCl, 0.5% Nonidet P-40, leupeptin (10 μg/ml) and aprotonin (10 μg/ml) incubated on ice for 10 minutes and carefully layered over extract buffer containing 24% sucrose. Samples were centrifuged over a sucrose gradient at 1 0,000xg for 20 minutes at 4° C. Post-nuclear extract was separated, stored on ice and aliquots taken for protein concentration using Bradford protein assay (see Bradford, M. M. 1976. A rapid and sensitive method for the quantitation of microgram quantities of protein utilizing the principle of protein-dye bindingno title. Anal. Biochem. 72:248-254). Total RNA (10 μg) from A10 cells, was incubated with 2.7% (vol/vol) of the post-nuclear extracts for 30 minutes at 4° C. in 50 μl (final volume) of extract buffer. When specifically noted, 50 mM EDTA was added to the reactions as a control to inhibit nuclease activity. […]

PKCβI mRNA [3] = test: RT-PCR of PKCβI mRNA in synchronized A10 cells; format: cell-based, rat; conditions: 4 hours
Procedure: as §1
Thus, the PKCβII transcript contains the PKCβI exon with the poly A tail and a common 3′ untranslated region (FIG. 25). Inclusion of the alternatively spliced exon encodes a stop codon such that the PKCβI exon facilitates poly-adenylation but the exon is not translated, thereby generating PKCβII protein. […] Although, this assay is semi-quantitative, the ration of PKCβII to PKCβI mRNA was about 2 to 1.

PKCβII mRNA [4] = test: RT-PCR of PKCβII mRNA in primary human aortic smooth muscle cells (AoSMC); format: cell-based; conditions: 4 hours; for effect on PKCβII mRNA: 100 nM insulin
Procedure: (§2) Cells were grown to >90% confluency and medium was changed every 5 days.
as §1

PKCβI mRNA [5] = test: RT-PCR of PKCβI mRNA in primary human aortic smooth muscle cells (AoSMC); format: cell-based; conditions: 100 nM insulin, 4 hours
Procedure: as §2, §1

PKCβ(I+II) mRNA [6] = test: Northern blot of steady state PKCβ(I+II) mRNA in synchronized A10 cells; format: cell-based, rat; conditions: 25 mM mannitol osmotic control, 15-18 hours
Procedure: Cell culture. […] Cells were grown to >90% confluency and media was changed every 4 days. Cell synchronization was achieved by serum deprivation (0.5% FBS) for 48 hours (see, for example, Ross, R., C. Nist, B. Kariya, M. J. Rivest, E. Raines, and J. Callis. 1978. Physiological quiescence in plasma-derived serum: Influence of platelet derived growth factor on cell growth in culture. J. Cell. Physiol. 97:497-508).
Isolation of RNA and Northern Blot Analysis. Total cellular RNA was isolated from 100-mm plates using Tri-Reagent (Molecular Research Center, Inc.). […] Ethidium bromide was added in the loading buffer for visualization and quantitation of 18S and 28S RNA. After fractionation, the integrity and loading of RNA was assessed under UV light (23,24). […] Membranes were washed with high stringency conditions (1×SSC, 0.1% SDS for 15 minutes at 42° C. followed by 0.11× SSC, 0.1% SDS for 15 minutes at 42° C.), and quantitated using Molecular Dynamics Phosphoimaging System. In experiments, where mentioned, membranes were exposed to X-ray film and the autoradiograms were quantitated densitometrically.
Cells incubated with 25 mM mannitol were used as osmotic controls. Total RNA was extracted and the mRNA transcript levels were detected using a full length PKCβ cDNA probe which would cross-hybridize with both PKCβI and PKCβII mRNAs. […]

rat VSMC = conditions: cited from earlier work
[7] = tested on: IL-3 3′-UTR ARE transcript; conditions: cited from earlier work
PP2B = conditions: cited from earlier work
PP2A = conditions: cited from earlier work
PP1 = conditions: cited from earlier work

O=CC[C@@H](O)[C@H](O)[C@H](O)CO [2-DOG, 2-deoxyglucose]
effect of glucose analogs on PKCβII mRNA (PKCβII mRNA [1]; 4 hours): destabilized

O=C(CO)[C@@H](O)[C@H](O)[C@H](O)CO [fructose]
destabilization of the glucose-sensing element (glucose-sensing element): do not destabilize

CCCCCCCCCCCCCC(=O)O[C@@H]1[C@@H](C)[C@@]2(O)[C@@H](C=C(CO)C[C@]3(O)C(=O)C(C)=C[C@@H]23)[C@@H]2C(C)(C)[C@]12OC(C)=O [TPA, 12-O-tetradecanoylphorbol-13-acetate]
increase of promoter activity in all constructs (PKCβ promoter): ten-fold

N#C/C(=C/c1ccc(O)c(O)c1)C(=O)NCc1ccccc1 [AG-490]
PERCENT OF PKCβII mRNA POST-GLUCOSE TREATMENT (PKCβII mRNA [1]): 5%

CO[C@H]1[C@@H](OC)C[C@H](C)[C@@H](OC)C2=CC(=O)C=C(NC(=O)/C(C)=C/C=C\[C@H](OC)[C@@H](OC(N)=O)/C(C)=C/[C@@H]1C)C2=O [Herbimycin A]
effect of inhibitor on glucose-induced destabilization of PKCβII mRNA (PKCβII mRNA [1]): prevented | PERCENT OF PKCβII mRNA POST-GLUCOSE TREATMENT (PKCβII mRNA [1]): 90%

C[C@@H]1C[C@@H]([C@H](O)CC2CC(=O)NC(=O)C2)C(=O)[C@@H](C)C1 [Cycloheximide]
effect of inhibitor on glucose-induced destabilization of PKCβII mRNA (PKCβII mRNA [1]): did not block | PERCENT OF PKCβII mRNA POST-GLUCOSE TREATMENT (PKCβII mRNA [1]): 10%

CO[C@@H]([C@H](O)[C@H](O)CO)[C@@H](O)C=O [3-O-Methylglucose, 3-O-methylglucose]
effect of glucose analogs on PKCβII mRNA (PKCβII mRNA [1]; 4 hours): destabilized

O=C(O)CN(CCN(CC(=O)O)CC(=O)O)CC(=O)O [EDTA]
degradation of RNA by post-nuclear extract (PKCβ(I+II) mRNA [2]): No degradation

N[C@H]1C(O)O[C@H](CO)[C@@H](O)[C@@H]1O (stereo partly shown) [Glucosamine]
effect on PKCβI mRNA (PKCβI mRNA [3]; 10 mM glucosamine in the presence of 5.5 mM glucose): did not destabilize; also recorded: did not affect | effect on PKCβII mRNA (PKCβII mRNA [1]; 10 mM glucosamine in the presence of 5.5 mM glucose, 4 hours): did not destabilize; also recorded: did not affect

insulin: hormone that promotes glucose uptake
effect on PKCβII mRNA (PKCβII mRNA [4]): did not significantly affect | effect on PKCβII mRNA (PKCβII mRNA [4]; listed as Insulin): did not destabilize | PKCβII mRNA diminished (PKCβII mRNA [4]; 25 mM glucose+100 nM insulin): 60% | effect on PKCβI mRNA (PKCβI mRNA [5]): did not significantly affect | effect on PKCβI mRNA (PKCβI mRNA [5]; listed as Insulin): did not destabilize

OC[C@@H](O)[C@@H](O)[C@H](O)[C@H](O)CO [mannitol]
destabilization of the glucose-sensing element (glucose-sensing element): do not destabilize | levels of PKCβI mRNA (PKCβI mRNA [3]; 5.5 mM glucose+19.5 mM mannitol (osmotic control)): remained unchanged | levels of PKCβII mRNA (PKCβII mRNA [1]; 5.5 mM glucose+19.5 mM mannitol (osmotic control), 4 hours): did not; also recorded: remained unchanged | PKCβ(I+II) mRNA levels (PKCβ(I+II) mRNA [6]): remained unchanged

CO[C@@H]1[C@H](N(C)C(=O)c2ccccc2)C[C@H]2O[C@]1(C)n1c3ccccc3c3c4c(c5c6ccccc6n2c5c31)C(=O)NC4 [CG 41251]
PERCENT OF PKCβII mRNA POST-GLUCOSE TREATMENT (PKCβII mRNA [1]): 100%

O=C1NC(=O)c2cc(Nc3ccc(F)cc3)c(Nc3ccc(F)cc3)cc21 [CGP53353]
glucose-stimulated rat VSMC proliferation (rat VSMC): inhibits

COc1cccc(-c2cc(=O)c3ccccc3o2)c1N [PD 98059]
PERCENT OF PKCβII mRNA POST-GLUCOSE TREATMENT (PKCβII mRNA [1]): 5%

O=c1cc(N2CCOCC2)oc2c(-c3ccccc3)cccc12 [LY 294002]
PERCENT OF PKCβII mRNA POST-GLUCOSE TREATMENT (PKCβII mRNA [1]): 90%

CO[C@H]1C[C@@H]2CC[C@@H](C)[C@@](O)(O2)C(=O)C(=O)N2CCCC[C@H]2C(=O)O[C@H]([C@H](C)C[C@@H]2CC[C@@H](O)[C@H](OC)C2)CC(=O)[C@H](C)/C=C(\C)[C@@H](O)[C@@H](OC)C(=O)[C@H](C)C[C@H](C)/C=C/C=C/C=C/1C [Rapamycin]
PERCENT OF PKCβII mRNA POST-GLUCOSE TREATMENT (PKCβII mRNA [1]): 5%

C=C1[C@@H](O)[C@@H]2O[C@]3(CC[C@H](/C=C/[C@@H](C)[C@@H]4CC(C)=C[C@@]5(O[C@H](C[C@@](C)(O)C(=O)O)CC[C@H]5O)O4)O3)CC[C@H]2O[C@@H]1[C@@H](O)C[C@H](C)[C@H]1O[C@@]2(CCCCO2)CC[C@H]1C [Okadaic acid]
effect of inhibitor on glucose-induced destabilization of PKCβII mRNA (PKCβII mRNA [1]): interfered; also recorded: inhibited the destabilization | effect on mRNA stability in GFP reporter system [7]: mRNA stabilizing compound | Ki (PP2B): less potent inhibitor | Ki (PP2A): 0.2 nM | Ki (PP1): 20 nM
